Test results taken from ChEMBL document CHEMBL4265937, “Branched pentapeptides as potent inhibitors of the vascular endothelial growth factor 165 binding to Neuropilin-1: Design, synthesis and biological activity” (Eur J Med Chem, 2018).
Non-standard residues stand in square brackets, D forms with d. Residues, ends and D or L forms follow the SMILES beside them. *: point of attachment. X1 = N=C(N)NCCCCCCCCCCC(=O)*; X2 = N=C(N)NCCCCCCC(=O)*; Dab = NCC[C@H](N)C(=O)O

Assays:
[1] = biological target: Neuropilin-1 (Rattus norvegicus) (UniProt Q9QWJ9); assay: Inhibition of biotinylated VEGF-A165 binding to rat NRP1/FC chimera at 1 uM after 40 mins by ELISA relative to control
[2] = biological target: Neuropilin-1 (Rattus norvegicus) (UniProt Q9QWJ9); assay: Inhibition of biotinylated VEGF-A165 binding to rat NRP1/FC chimera at 0.3 uM after 40 mins by ELISA relative to control
Neuropilin-1 [3] = biological target: Neuropilin-1 (Homo sapiens, UniProt O14786); assay: Inhibition of biotinylated VEGF165 binding to NRP1 (unknown origin) by ELISA
Chain of Neuropilin-1 (Homo sapiens, UniProt O14786) (O14786 whole entry): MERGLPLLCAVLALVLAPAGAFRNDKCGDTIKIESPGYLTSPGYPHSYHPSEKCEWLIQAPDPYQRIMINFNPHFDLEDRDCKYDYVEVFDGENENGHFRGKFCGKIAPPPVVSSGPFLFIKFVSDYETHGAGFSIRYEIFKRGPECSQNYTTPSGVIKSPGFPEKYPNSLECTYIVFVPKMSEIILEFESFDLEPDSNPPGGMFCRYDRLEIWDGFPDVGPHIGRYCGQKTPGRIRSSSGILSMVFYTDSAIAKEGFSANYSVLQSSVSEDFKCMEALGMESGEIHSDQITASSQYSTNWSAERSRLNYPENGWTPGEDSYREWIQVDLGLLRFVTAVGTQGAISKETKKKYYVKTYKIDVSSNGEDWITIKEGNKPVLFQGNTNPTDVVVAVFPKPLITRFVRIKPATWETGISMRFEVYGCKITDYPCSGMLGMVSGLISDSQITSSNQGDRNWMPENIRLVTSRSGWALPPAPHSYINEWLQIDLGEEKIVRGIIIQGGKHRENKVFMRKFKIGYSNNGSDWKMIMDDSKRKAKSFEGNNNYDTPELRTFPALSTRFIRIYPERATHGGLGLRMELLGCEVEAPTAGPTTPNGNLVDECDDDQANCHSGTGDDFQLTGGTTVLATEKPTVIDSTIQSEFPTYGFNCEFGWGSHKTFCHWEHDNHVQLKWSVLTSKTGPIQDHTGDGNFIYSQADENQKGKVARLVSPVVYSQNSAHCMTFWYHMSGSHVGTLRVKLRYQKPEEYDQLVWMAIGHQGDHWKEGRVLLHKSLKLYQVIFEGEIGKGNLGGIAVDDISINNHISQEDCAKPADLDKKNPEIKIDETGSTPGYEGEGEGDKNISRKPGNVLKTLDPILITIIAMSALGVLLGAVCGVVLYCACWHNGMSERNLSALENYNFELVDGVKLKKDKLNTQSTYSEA

[4] = Half life in human plasma at 0.9 umol/ml by LC-MS analysis; type: ADME, cell-free
Neuropilin-1 [5] = biological target: Neuropilin-1 (Rattus norvegicus, UniProt Q9QWJ9); assay: Inhibition of biotinylated VEGF-A165 binding to rat NRP1/FC chimera after 40 mins by ELISA
[6] = biological target: Neuropilin-1 (Rattus norvegicus) (UniProt Q9QWJ9); assay: Inhibition of biotinylated VEGF-A165 binding to rat NRP1/FC chimera at 10 uM after 40 mins by ELISA relative to control

SMILES	inhibition [1]	inhibition [2]	also measured
N=C(N)NCCCCCCCCCCC(=O)NCCCC[C@H](N)C(=O)N1CCC[C@H]1C(=O)N[C@@H](CCN)C(=O)N[C@@H](CCCNC(=N)N)C(=O)O (H-K(X1)P[Dab]R-OH)	35.5%	12.1%	–
N=C(N)NCCC[C@H](NC(=O)[C@H](CCN)NC(=O)[C@@H]1CCCN1C(=O)[C@@H](N)CCNC(=O)C(N)CCCCN=C(N)N)C(=O)O (stereo partly drawn) (HELM PEPTIDE1{[Dab].P.[Dab].R}|PEPTIDE2{[N=C(N)NCCCCC(N)C(=O)[*:2]]}$PEPTIDE1,PEPTIDE2,1:R3-1:R2$$$V2.0)	41.4%	5.7%	–
N=C(N)NCCCCCCC(=O)NCCCC[C@H](N)C(=O)N1CCC[C@H]1C(=O)N[C@@H](CCN)C(=O)N[C@@H](CCCNC(=N)N)C(=O)O (H-K(X2)P[Dab]R-OH)	44.7%	25.5%	–
N=C(N)NCCC[C@H](NC(=O)[C@@H]1CCCN1C(=O)[C@@H]1CCCN1C(=O)[C@@H](N)CCCCN)C(=O)O (H-KPPR-OH)	15.4%	10.1%	IC50 (Neuropilin-1 [3]): 4600 nM
N=C(N)NCCC[C@H](NC(=O)[C@@H]1CCCN1C(=O)[C@H](CN)NC(=O)[C@@H](N)CCCCNC(=O)C(N)CCCCN=C(N)N)C(=O)O (stereo partly drawn) (HELM PEPTIDE1{K.[NC[C@H](N[*:1])C(=O)[*:2]].P.R}|PEPTIDE2{[N=C(N)NCCCCC(N)C(=O)[*:2]]}$PEPTIDE1,PEPTIDE2,1:R3-1:R2$$$V2.0)	82%	59.4%	half-life at 900 µM [4]: 2040 min; IC50 (Neuropilin-1 [5]; read-out: IC50): 200 nM
C[C@H](NC(=O)[C@H](C)NC(=O)[C@@H](N)CCCCNC(=O)C(N)CCCCN=C(N)N)C(=O)N[C@@H](CCCNC(=N)N)C(=O)O (stereo partly drawn) (HELM PEPTIDE1{K.A.A.R}|PEPTIDE2{[N=C(N)NCCCCC(N)C(=O)[*:2]]}$PEPTIDE1,PEPTIDE2,1:R3-1:R2$$$V2.0)	48.9%	16.9%	–
C[C@H](NC(=O)[C@@H]1CCCN1C(=O)[C@@H](N)CCCCNC(=O)C(N)CCCCN=C(N)N)C(=O)N[C@@H](CCCNC(=N)N)C(=O)O (stereo partly drawn) (HELM PEPTIDE1{K.P.A.R}|PEPTIDE2{[N=C(N)NCCCCC(N)C(=O)[*:2]]}$PEPTIDE1,PEPTIDE2,1:R3-1:R2$$$V2.0)	77.5%	54.2%	half-life at 900 µM [4]: 39 min; IC50 (Neuropilin-1 [5]; read-out: IC50): 300 nM
N=C(N)NCCC[C@H](NC(=O)[C@H](CN)NC(=O)[C@@H]1CCCN1C(=O)[C@@H](N)CCCCNC(=O)C(N)CCCCN=C(N)N)C(=O)O (stereo partly drawn) (HELM PEPTIDE1{K.P.[NC[C@H](N[*:1])C(=O)[*:2]].R}|PEPTIDE2{[N=C(N)NCCCCC(N)C(=O)[*:2]]}$PEPTIDE1,PEPTIDE2,1:R3-1:R2$$$V2.0)	23.6%	18.4%	–
C[C@H](NC(=O)[C@H](CCN)NC(=O)[C@@H](N)CCCCNC(=O)C(N)CCCCN=C(N)N)C(=O)N[C@@H](CCCNC(=N)N)C(=O)O (stereo partly drawn) (HELM PEPTIDE1{K.[Dab].A.R}|PEPTIDE2{[N=C(N)NCCCCC(N)C(=O)[*:2]]}$PEPTIDE1,PEPTIDE2,1:R3-1:R2$$$V2.0)	47.3%	16.1%	–
N=C(N)NCCC[C@H](NC(=O)[C@@H]1CCCN1C(=O)[C@H](CCCCN)NC(=O)[C@@H](N)CCCCNC(=O)C(N)CCCCN=C(N)N)C(=O)O (stereo partly drawn) (HELM PEPTIDE1{K.K.P.R}|PEPTIDE2{[N=C(N)NCCCCC(N)C(=O)[*:2]]}$PEPTIDE1,PEPTIDE2,1:R3-1:R2$$$V2.0)	22.1%	–	–
C[C@H](NC(=O)[C@@H](N)CCCCNC(=O)C(N)CCCCN=C(N)N)C(=O)N1CCC[C@H]1C(=O)N[C@@H](CCCNC(=N)N)C(=O)O (stereo partly drawn) (HELM PEPTIDE1{K.A.P.R}|PEPTIDE2{[N=C(N)NCCCCC(N)C(=O)[*:2]]}$PEPTIDE1,PEPTIDE2,1:R3-1:R2$$$V2.0)	20%	3.9%	–
N=C(N)NCCC[C@H](NC(=O)[C@@H]1CCCN1C(=O)[C@@H]1CCCN1C(=O)[C@@H](N)CCCCNC(=O)C(N)CCCCN=C(N)N)C(=O)O (stereo partly drawn) (HELM PEPTIDE1{K.P.P.R}|PEPTIDE2{[N=C(N)NCCCCC(N)C(=O)[*:2]]}$PEPTIDE1,PEPTIDE2,1:R3-1:R2$$$V2.0)	41.4%	4.7%	IC50 (Neuropilin-1 [5]; read-out: IC50): 1000 nM
N=C(N)NCCC[C@H](NC(=O)[C@@H]1CCCN1C(=O)C(CCN)NC(=O)[C@@H](N)CCCCN=C(N)N)C(=O)O (stereo partly drawn) (HELM PEPTIDE1{[N=C(N)NCCCC[C@H](N)C(=O)[*:2]].[NCCC(N[*:1])C(=O)[*:2]].P.R}$$$$V2.0)	–	–	IC50 (Neuropilin-1 [3]): 800 nM
C[C@H](NC(=O)[C@H](CCCCN)NC(=O)[C@@H](N)CCCCNC(=O)C(N)CCCCN=C(N)N)C(=O)N[C@@H](CCCNC(=N)N)C(=O)O (stereo partly drawn) (HELM PEPTIDE1{K.K.A.R}|PEPTIDE2{[N=C(N)NCCCCC(N)C(=O)[*:2]]}$PEPTIDE1,PEPTIDE2,1:R3-1:R2$$$V2.0)	22.2%	–	–
N=C(N)NCCC[C@H](NC(=O)[C@H](CCN)NC(=O)[C@@H]1CCCN1C(=O)[C@@H](N)CCCCNC(=O)C(N)CCCCN=C(N)N)C(=O)O (stereo partly drawn) (HELM PEPTIDE1{K.P.[Dab].R}|PEPTIDE2{[N=C(N)NCCCCC(N)C(=O)[*:2]]}$PEPTIDE1,PEPTIDE2,1:R3-1:R2$$$V2.0)	82.6%	62.2%	half-life at 900 µM [4]: 44 min; IC50 (Neuropilin-1 [5]; read-out: IC50): 200 nM; IC50 (Neuropilin-1 [5]; read-out: pIC50 (converted)): 240 nM
N=C(N)NCCC[C@H](NC(=O)[C@@H]1CCCN1C(=O)[C@H](CCCN)NC(=O)[C@@H](N)CCCCNC(=O)C(N)CCCCN=C(N)N)C(=O)O (stereo partly drawn) (HELM PEPTIDE1{K.[Orn].P.R}|PEPTIDE2{[N=C(N)NCCCCC(N)C(=O)[*:2]]}$PEPTIDE1,PEPTIDE2,1:R3-1:R2$$$V2.0)	38%	10.4%	–
N=C(N)NCCC[C@H](NC(=O)[C@@H]1CCCN1C(=O)[C@H](CCN)NC(=O)[C@@H](N)CCCCNC(=O)C(N)CCCCN=C(N)N)C(=O)O (stereo partly drawn) (HELM PEPTIDE1{K.[Dab].P.R}|PEPTIDE2{[N=C(N)NCCCCC(N)C(=O)[*:2]]}$PEPTIDE1,PEPTIDE2,1:R3-1:R2$$$V2.0)	83.7%	59.6%	half-life at 900 µM [4]: 2460 min; IC50 (Neuropilin-1 [5]; read-out: IC50): 200 nM
N=C(N)NCCC[C@H](NC(=O)[C@H](CCCN)NC(=O)[C@@H]1CCCN1C(=O)[C@@H](N)CCCCNC(=O)C(N)CCCCN=C(N)N)C(=O)O (stereo partly drawn) (HELM PEPTIDE1{K.P.[Orn].R}|PEPTIDE2{[N=C(N)NCCCCC(N)C(=O)[*:2]]}$PEPTIDE1,PEPTIDE2,1:R3-1:R2$$$V2.0)	17.8%	11.1%	–
N=C(N)NCCCC(N)C(=O)NCCCC[C@H](N)C(=O)N1CCC[C@H]1C(=O)N[C@@H](CCN)C(=O)N[C@@H](CCCNC(=N)N)C(=O)O (stereo partly drawn) (HELM PEPTIDE1{K.P.[Dab].R}|PEPTIDE2{[N=C(N)NCCCC(N)C(=O)[*:2]]}$PEPTIDE1,PEPTIDE2,1:R3-1:R2$$$V2.0)	39.9%	8%	–
N=C(N)NCCC[C@H](NC(=O)[C@H](CCCCN)NC(=O)[C@@H]1CCCN1C(=O)[C@@H](N)CCCCNC(=O)C(N)CCCCN=C(N)N)C(=O)O (stereo partly drawn) (HELM PEPTIDE1{K.P.K.R}|PEPTIDE2{[N=C(N)NCCCCC(N)C(=O)[*:2]]}$PEPTIDE1,PEPTIDE2,1:R3-1:R2$$$V2.0)	22.4%	20.6%	–
C[C@H](NC(=O)[C@H](CN)NC(=O)[C@@H](N)CCCCNC(=O)C(N)CCCCN=C(N)N)C(=O)N[C@@H](CCCNC(=N)N)C(=O)O (stereo partly drawn) (HELM PEPTIDE1{K.[NC[C@H](N[*:1])C(=O)[*:2]].A.R}|PEPTIDE2{[N=C(N)NCCCCC(N)C(=O)[*:2]]}$PEPTIDE1,PEPTIDE2,1:R3-1:R2$$$V2.0)	25%	14.1%	–
N=C(N)NCCCC(N)C(=O)NCCC[C@H](N)C(=O)N1CCC[C@H]1C(=O)N[C@@H](CCN)C(=O)N[C@@H](CCCNC(=N)N)C(=O)O (stereo partly drawn) (HELM PEPTIDE1{[Orn].P.[Dab].R}|PEPTIDE2{[N=C(N)NCCCC(N)C(=O)[*:2]]}$PEPTIDE1,PEPTIDE2,1:R3-1:R2$$$V2.0)	40.3%	2.8%	–
N=C(N)NCCC[C@H](NC(=O)[C@H](CCN)NC(=O)[C@@H]1CCCN1C(=O)[C@@H](N)CCCNC(=O)C(N)CCCCN=C(N)N)C(=O)O (stereo partly drawn) (HELM PEPTIDE1{[Orn].P.[Dab].R}|PEPTIDE2{[N=C(N)NCCCCC(N)C(=O)[*:2]]}$PEPTIDE1,PEPTIDE2,1:R3-1:R2$$$V2.0)	36.3%	17%	–
N=C(N)NCCC[C@H](NC(=O)[C@H](CCN)NC(=O)[C@@H]1CCCN1C(=O)[C@@H](N)CCCCNC(=O)C(N)CCNC(=N)N)C(=O)O (stereo partly drawn) (HELM PEPTIDE1{K.P.[Dab].R}|PEPTIDE2{[N=C(N)NCCC(N)C(=O)[*:2]]}$PEPTIDE1,PEPTIDE2,1:R3-1:R2$$$V2.0)	28%	5.7%	–
C[C@H](NC(=O)[C@H](CCCN)NC(=O)[C@@H](N)CCCCNC(=O)C(N)CCCCN=C(N)N)C(=O)N[C@@H](CCCNC(=N)N)C(=O)O (stereo partly drawn) (HELM PEPTIDE1{K.[Orn].A.R}|PEPTIDE2{[N=C(N)NCCCCC(N)C(=O)[*:2]]}$PEPTIDE1,PEPTIDE2,1:R3-1:R2$$$V2.0)	15.6%	–	–
N=C(N)NCCC[C@H](NC(=O)[C@@H]1CCCN1C(=O)[C@@H](N)CCCCNC(=O)C(N)CCCCN=C(N)N)C(=O)O (stereo partly drawn) (HELM PEPTIDE1{K.P.R}|PEPTIDE2{[N=C(N)NCCCCC(N)C(=O)[*:2]]}$PEPTIDE1,PEPTIDE2,1:R3-1:R2$$$V2.0)	–	–	inhibition [6]: 47.8%
